Measured values taken from patent US20070049564A1 (Wyeth, priority 2005, published 2007).
Read-outs that look alike come from different tables or passages of the source.

Tests used:
E. coli GC 2272 = experiment: MIC, broth microdilution; conditions: Escherichia coli
S. pneumoniae* GC 4465 = experiment: MIC, broth microdilution; conditions: Streptococcus pneumoniae
E. coli GC 2236 = experiment: MIC, broth microdilution; conditions: Escherichia coli
Description: Antimicrobial susceptibility testing. The in vitro activities of the antibiotics are determined by the broth microdilution method as recommended by the National Committee for Clinical Laboratory Standards (NCCLS) (1). Mueller-Hinton II broth (MHBII)(BBL Cockeysville, Md.) is the medium employed in the testing procedures. Microtiter plates containing serial dilutions of each antimicrobial agent are inoculated with each organism to yield the appropriate density (10^5 CFU/ml) in a 100 μl final volume. The plates are incubated for 18-22 hours at 35° C. in ambient air. […] Standard Pharmacological Test Procedures
Presented in Tables I-XIII are representative compounds of Formula I which were evaluated against a panel of 40 selected gram-positive and gram-negative bacteria strains by pre-incubation in water, mouse serum or human serum. Representative compounds were first incubated in mouse serum for an hour prior to the in vitro testing against a panel of selected gram-positive and gram-negative bacteria strains. All compounds were also pre-incubated in water for an hour prior to testing as control. Representative compounds of Formula I were incubated in human serum prior to MIC determination.

S. aureus GC 6335 = experiment: MIC, broth microdilution; conditions: Staphylococcus aureus
Description: (§1) Antimicrobial susceptibility testing. The in vitro activities of the antibiotics are determined by the broth microdilution method as recommended by the National Committee for Clinical Laboratory Standards (NCCLS) (1). Mueller-Hinton II broth (MHBII)(BBL Cockeysville, Md.) is the medium employed in the testing procedures. Microtiter plates containing serial dilutions of each antimicrobial agent are inoculated with each organism to yield the appropriate density (10^5 CFU/ml) in a 100 μl final volume. The plates are incubated for 18-22 hours at 35° C. in ambient air.
(§2) Representative compounds were first incubated in mouse serum for an hour prior to the in vitro testing against a panel of selected gram-positive and gram-negative bacteria strains. All compounds were also pre-incubated in water for an hour prior to testing as control. Representative compounds of Formula I were incubated in human serum prior to MIC determination.

E. faecalis GC 2265 = experiment: MIC, broth microdilution; conditions: Enterococcus faecalis
E. coli GC 4559 = experiment: MIC, broth microdilution; conditions: Escherichia coli
S. aureus GC 1131 = experiment: MIC, broth microdilution; conditions: Staphylococcus aureus
Description: as §1
Representative compounds were first incubated in mouse serum for an hour prior to the in vitro testing against a panel of selected gram-positive and gram-negative bacteria strains. All compounds were also pre-incubated in water for an hour prior to testing as control.

S. agalactiae GC 4564 = experiment: MIC, broth microdilution; conditions: Streptococcus agalactiae
E. coli GC 2234 = experiment: MIC, broth microdilution; conditions: Escherichia coli
P. aeruginosa GC 2214 = experiment: MIC, broth microdilution; conditions: Pseudomonas aeruginosa
S. pneumoniae+ GC 4465 = experiment: MIC, broth microdilution; conditions: Streptococcus pneumoniae
Staph. aureus Smith = experiment: In vivo activity (oral, iv; ED50) against Staph. aureus Smith in mice
Description: Representative examples of compounds of Formula I were tested for the oral efficacy using S. aureus Smith in mice.

S. pyogenes GC 4563 = experiment: MIC, broth microdilution; conditions: Streptococcus pyogenes
E. coli GC 2203 = experiment: MIC, broth microdilution; conditions: Escherichia coli
E. faecalis GC 2267 = experiment: MIC, broth microdilution; conditions: Enterococcus faecalis
E. coli GC 2271 = experiment: MIC, broth microdilution; conditions: Escherichia coli
E. faecalis GC 4555 = experiment: MIC, broth microdilution; conditions: Enterococcus faecalis
E. coli GC 3226 = experiment: MIC, broth microdilution; conditions: Escherichia coli
S. epidermidis GC 4935 = experiment: MIC, broth microdilution; conditions: Staphylococcus epidermidis
Description: as §1, §2

E. coli GC 2232 = experiment: MIC, broth microdilution; conditions: Escherichia coli
[1] = read-out: MINIMAL INHIBITORY CONCENTRATION MIC, pre-incubated in Human Serum
[2] = read-out: MINIMAL INHIBITORY CONCENTRATION MIC, pre-incubated in Mouse Serum
[3] = read-out: MINIMAL INHIBITORY CONCENTRATION MIC, pre-incubated in Water

Cc1ccc(C(=O)OCOC(=O)N(CC(=O)Nc2cc(N(C)C)c3c(c2O)C(=O)C2=C(O)[C@]4(O)C(=O)C(C(N)=O)=C(O)[C@@H](N(C)C)[C@@H]4C[C@@H]2C3)C(C)(C)C)cc1 [Example 47]
1 µg/mL: MIC (E. coli GC 2272; GC2272, read-out: MINIMAL INHIBITORY CONCENTRATION MIC, pre-incubated in Mouse Serum) | MIC (E. coli GC 2236; GC2236, read-out: MINIMAL INHIBITORY CONCENTRATION MIC, pre-incubated in Mouse Serum) | MIC (S. aureus GC 6335; GC6335, read-out: MINIMAL INHIBITORY CONCENTRATION MIC, pre-incubated in Mouse Serum) | MIC (E. faecalis GC 2265; GC2265, read-out: MINIMAL INHIBITORY CONCENTRATION MIC, pre-incubated in Mouse Serum) | MIC (S. aureus GC 1131; GC1131, read-out: MINIMAL INHIBITORY CONCENTRATION MIC, pre-incubated in Mouse Serum) | MIC (S. agalactiae GC 4564; GC4564, read-out: MINIMAL INHIBITORY CONCENTRATION MIC, pre-incubated in Human Serum) | MIC (S. agalactiae GC 4564; GC4564, read-out: MINIMAL INHIBITORY CONCENTRATION MIC, pre-incubated in Water) | MIC (E. coli GC 2234; GC2234, read-out: MINIMAL INHIBITORY CONCENTRATION MIC, pre-incubated in Mouse Serum) | MIC (E. coli GC 2203; GC2203, read-out: MINIMAL INHIBITORY CONCENTRATION MIC, pre-incubated in Mouse Serum) | MIC (E. faecalis GC 2267; GC2267, read-out: MINIMAL INHIBITORY CONCENTRATION MIC, pre-incubated in Mouse Serum) | MIC (E. coli GC 2271; GC2271, read-out: MINIMAL INHIBITORY CONCENTRATION MIC, pre-incubated in Mouse Serum) | MIC (E. faecalis GC 4555; GC4555, read-out: MINIMAL INHIBITORY CONCENTRATION MIC, pre-incubated in Mouse Serum) | MIC (E. coli GC 2232; GC2232, read-out: MINIMAL INHIBITORY CONCENTRATION MIC, pre-incubated in Mouse Serum)
16 µg/mL: MIC (E. coli GC 2272; GC2272, read-out: MINIMAL INHIBITORY CONCENTRATION MIC, pre-incubated in Human Serum) | MIC (E. coli GC 2234; GC2234, read-out: MINIMAL INHIBITORY CONCENTRATION MIC, pre-incubated in Human Serum) | MIC (E. coli GC 2271; GC2271, read-out: MINIMAL INHIBITORY CONCENTRATION MIC, pre-incubated in Human Serum) | MIC (E. coli GC 2232; GC2232, read-out: MINIMAL INHIBITORY CONCENTRATION MIC, pre-incubated in Human Serum)
> 64 µg/mL: MIC (E. coli GC 2272; GC2272, read-out: MINIMAL INHIBITORY CONCENTRATION MIC, pre-incubated in Water) | MIC (E. coli GC 2236; GC2236, read-out: MINIMAL INHIBITORY CONCENTRATION MIC, pre-incubated in Water) | MIC (E. coli GC 4559; GC4559, read-out: MINIMAL INHIBITORY CONCENTRATION MIC, pre-incubated in Water) | MIC (E. coli GC 2234; GC2234, read-out: MINIMAL INHIBITORY CONCENTRATION MIC, pre-incubated in Water) | MIC (P. aeruginosa GC 2214; GC2214, read-out: MINIMAL INHIBITORY CONCENTRATION MIC, pre-incubated in Human Serum) | MIC (P. aeruginosa GC 2214; GC2214, read-out: MINIMAL INHIBITORY CONCENTRATION MIC, pre-incubated in Water) | MIC (E. coli GC 2203; GC2203, read-out: MINIMAL INHIBITORY CONCENTRATION MIC, pre-incubated in Water) | MIC (E. coli GC 2271; GC2271, read-out: MINIMAL INHIBITORY CONCENTRATION MIC, pre-incubated in Water) | MIC (E. coli GC 3226; GC3226, read-out: MINIMAL INHIBITORY CONCENTRATION MIC, pre-incubated in Water) | MIC (E. coli GC 2232; GC2232, read-out: MINIMAL INHIBITORY CONCENTRATION MIC, pre-incubated in Water)
14 mg/kg: ED50 (Staph. aureus Smith; Staphylococcus aureus, in Mus musculus, po, read-out: ED50 SOD (Staph aureus Smith)) | ED50 (Staph. aureus Smith; Staphylococcus aureus, in Mus musculus, po, read-out: ED50 Staph Smith SOD)
2 µg/mL: MIC (S. aureus GC 6335; GC6335, read-out: MINIMAL INHIBITORY CONCENTRATION MIC, pre-incubated in Human Serum) | MIC (S. aureus GC 6335; GC6335, read-out: MINIMAL INHIBITORY CONCENTRATION MIC, pre-incubated in Water) | MIC (E. coli GC 4559; GC4559, read-out: MINIMAL INHIBITORY CONCENTRATION MIC, pre-incubated in Mouse Serum) | MIC (S. aureus GC 1131; GC1131, read-out: MINIMAL INHIBITORY CONCENTRATION MIC, pre-incubated in Human Serum) | MIC (S. aureus GC 1131; GC1131, read-out: MINIMAL INHIBITORY CONCENTRATION MIC, pre-incubated in Water) | MIC (S. pneumoniae+ GC 4465; [1]) | MIC (S. pneumoniae+ GC 4465; [2]) | MIC (E. coli GC 3226; GC3226, read-out: MINIMAL INHIBITORY CONCENTRATION MIC, pre-incubated in Mouse Serum) | MIC (S. epidermidis GC 4935; GC4935, read-out: MINIMAL INHIBITORY CONCENTRATION MIC, pre-incubated in Mouse Serum)
0.12 µg/mL: MIC (S. pyogenes GC 4563; GC4563, read-out: MINIMAL INHIBITORY CONCENTRATION MIC, pre-incubated in Mouse Serum)
0.25 µg/mL: MIC (S. pneumoniae* GC 4465; [2]) | MIC (S. pyogenes GC 4563; GC4563, read-out: MINIMAL INHIBITORY CONCENTRATION MIC, pre-incubated in Human Serum) | MIC (S. pyogenes GC 4563; GC4563, read-out: MINIMAL INHIBITORY CONCENTRATION MIC, pre-incubated in Water)
4 µg/mL: MIC (E. faecalis GC 2265; GC2265, read-out: MINIMAL INHIBITORY CONCENTRATION MIC, pre-incubated in Human Serum) | MIC (E. faecalis GC 2265; GC2265, read-out: MINIMAL INHIBITORY CONCENTRATION MIC, pre-incubated in Water) | MIC (S. pneumoniae+ GC 4465; [3]) | MIC (E. faecalis GC 2267; GC2267, read-out: MINIMAL INHIBITORY CONCENTRATION MIC, pre-incubated in Human Serum) | MIC (E. faecalis GC 2267; GC2267, read-out: MINIMAL INHIBITORY CONCENTRATION MIC, pre-incubated in Water) | MIC (E. faecalis GC 4555; GC4555, read-out: MINIMAL INHIBITORY CONCENTRATION MIC, pre-incubated in Human Serum) | MIC (E. faecalis GC 4555; GC4555, read-out: MINIMAL INHIBITORY CONCENTRATION MIC, pre-incubated in Water) | MIC (S. epidermidis GC 4935; GC4935, read-out: MINIMAL INHIBITORY CONCENTRATION MIC, pre-incubated in Human Serum) | MIC (S. epidermidis GC 4935; GC4935, read-out: MINIMAL INHIBITORY CONCENTRATION MIC, pre-incubated in Water)
32 µg/mL: MIC (E. coli GC 2236; GC2236, read-out: MINIMAL INHIBITORY CONCENTRATION MIC, pre-incubated in Human Serum) | MIC (P. aeruginosa GC 2214; GC2214, read-out: MINIMAL INHIBITORY CONCENTRATION MIC, pre-incubated in Mouse Serum) | MIC (E. coli GC 2203; GC2203, read-out: MINIMAL INHIBITORY CONCENTRATION MIC, pre-incubated in Human Serum) | MIC (E. coli GC 3226; GC3226, read-out: MINIMAL INHIBITORY CONCENTRATION MIC, pre-incubated in Human Serum)
64 µg/mL: MIC (E. coli GC 4559; GC4559, read-out: MINIMAL INHIBITORY CONCENTRATION MIC, pre-incubated in Human Serum)
1.2 mg/kg: ED50 (Staph. aureus Smith; Staphylococcus aureus, in Mus musculus, iv, read-out: ED50 SIV (Staph aureus Smith)) | ED50 (Staph. aureus Smith; iv, read-out: ED50 Staph Smith SIV)
0.5 µg/mL: MIC (S. pneumoniae* GC 4465; [1]) | MIC (S. pneumoniae* GC 4465; [3]) | MIC (S. agalactiae GC 4564; GC4564, read-out: MINIMAL INHIBITORY CONCENTRATION MIC, pre-incubated in Mouse Serum)
